Results taken from PMC10298982, “Stability Characterization of the Novel Anti-Cancer HM-10/10 HDL-Mimetic Peptide” (International Journal of Molecular Sciences, 2023).
“And” between values parts separate entries of the source, which are not always exact repeats. Equal values may be shown once. Read-outs that look alike come from different tables or passages of the source. Ends that are not written are not given here.

Assays:
[1] = Stability in simulated gastric fluid (SGF); assay type: in vitro ADME; conditions: SGF pH 1.3
Method: When developing any potentially oral-route pharmaceutical agent, the denaturing and pepsin-rich environment of the stomach must be considered. The stability of HM-10/10 was tested in simulated gastric fluid (SGF) and simulated intestinal fluid (SIF) over 120 min. […] Samples were tested at 2 μM.
For the HM-10/10 stability assay in simulated gastric and intestinal fluids, propantheline was used to confirm retention time and carbutamide was used as the internal standard for calculations.

[2] = Stability in potassium phosphate buffers of pH 1.3, 5.5 and 7.4; assay type: physicochemical; conditions: potassium phosphate buffer; for remaining at 1 h, 2 µM: read-out: % Remaining at 60 min
Method: The stability of HM-10/10 under varying pH conditions was determined by adding the compound to potassium phosphate buffers of pH 1.3 (acidic), 5.5 (slightly acidic), and 7.4 (physiological pH), with 7-Ethoxycoumarin used as a control article. Under acidic and slightly acidic conditions, the half-life of HM-10/10 could not be determined, as the percentage of HM-10/10 was higher at the end of the time course than at the beginning (Table 3, Figure 3). […] Samples were tested at 2 µM.
The instrument was equipped with an electrospray ionization source (600 °C) operated in the positive-ion mode.

[3] = Metabolic stability in CD-1 mouse liver microsomes; assay type: in vitro ADME
[4] = Metabolic stability in Sprague-Dawley rat liver microsomes; assay type: in vitro ADME; conditions: for CLint scaled: rat, microsomes, Sprague-Dawley rat liver microsomes 0.5 mg protein/mL, 2 μM
[5] = Metabolic stability in beagle dog liver microsomes; assay type: in vitro ADME; conditions: for CLint scaled: dog, microsomes, Beagle dog liver microsomes 0.5 mg protein/mL, 2 μM
[6] = Metabolic stability in cynomolgus monkey liver microsomes; assay type: in vitro ADME; conditions: for CLint scaled: cynomolgus monkey, microsomes, Cynomolgus monkey liver microsomes 0.5 mg protein/mL, 2 μM
[7] = Metabolic stability in cryopreserved CD-1 mouse hepatocytes; assay type: in vitro ADME; conditions: CD-1 mouse hepatocytes 0.5 million cells/mL; for CLint scaled: mouse, hepatocytes, 2 μM
[8] = Metabolic stability in cryopreserved beagle dog hepatocytes; assay type: in vitro ADME; conditions: Beagle dog hepatocytes 0.5 million cells/mL; for CLint scaled: dog, hepatocytes, 2 μM
[9] = Metabolic stability in cryopreserved human hepatocytes; assay type: in vitro ADME; conditions: Human hepatocytes 0.5 million cells/mL; for CLint scaled: hepatocytes
[10] = Protein binding in human plasma (ultracentrifugation); assay type: in vitro ADME; conditions: pH 7.4, Human plasma (K2EDTA)
[11] = test system: human plasma proteins; assay: as above; assay type: in vitro ADME; conditions: Human plasma (K2EDTA); 2 μM; 2.5 h at 37 °C
[12] = molecular target: CYP3A4 (Homo sapiens, UniProt P08684); assay: CYP450 time-dependent inhibition, CYP3A4 (midazolam and testosterone substrates), pooled human liver microsomes; assay type: in vitro ADME
[13] = CYP450 time-dependent inhibition, all isoenzymes together; assay type: in vitro ADME, human; conditions: all isoenzymes; +/− NADPH, with and without 30-min preincubation; read-out: Inhibition of CYP450 isoenzymes at 50 µM (maximum test concentration)
[14] = test system: CYP450 isoenzymes (1A2, 2B6, 2C8, 2C9, 2C19, 2D6 and 3A4); assay: as above; assay type: in vitro ADME, human
[15] = molecular target: CYP2D6 (Homo sapiens, UniProt P10635); conditions: microsomes
[16] = in vitro; conditions: human, plasma, pH 7.4
Method: (§1) The supernatant was removed and incubated at 37 °C for at least 10 min before use. The pH of each matrix was checked and adjusted to pH 7.4 using 10% phosphoric acid or 1 N sodium hydroxide as necessary.
(§2) Test and control article stock solutions were spiked (1.5 µL) into matrix (0.749 mL) to a final assay concentration of 2 µM and mixed. […] These tubes were sealed and incubated at 37 °C with shaking.
(§3) The quenched samples were mixed briefly by vortexing and stored in a −20 °C freezer.
(§4) Sample plates were stored refrigerated until analysis.
(§5) The column was set to a temperature of 55 °C. […] The instrument was equipped with an electrospray ionization source (500 °C) operated in positive-ion mode.
(§6) Peak area ratios for IS-normalized test article and control article counts were used to calculate the percent remaining relative to the time zero (T0) value. As appropriate, results were plotted and further analyzed to calculate half-life (T1/2) values.
(§7) Mean peak ratios were used to calculate the percent remaining relative to the T0 value: % Remaining at Timex = (mean peak area ratio Tx/mean peak ratio T0) × 100.

[17] = in vitro; conditions: Sprague-Dawley, rat, plasma, pH 7.4
Method: as §1, §2, §3, §4, §5, §6, §7

[18] = in vitro; conditions: beagle, dog, plasma, pH 7.4
Method: as §1, §2, §3, §4, §5, §6, §7

[19] = Protein binding in CD-1 mouse plasma (ultracentrifugation); conditions: CD-1, mouse, plasma (K2EDTA)
[20] = test system: CD-1 mouse plasma proteins; assay: as above; conditions: CD-1 mouse plasma (K2EDTA); 2 μM; 2.5 h at 37 °C
[21] = Protein binding in Sprague-Dawley rat plasma (ultracentrifugation); conditions: Sprague-Dawley, rat, plasma (K2EDTA), pH 7.4
[22] = test system: Sprague-Dawley rat plasma proteins; assay: as above; conditions: Sprague-Dawley rat plasma (K2EDTA), 2 μM
[23] = read-out: CLint (L/hr/kg) (converted)
[24] = cryopreserved hepatocytes, read-out: % Remaining at 30 min

CYP3A4, sequence (P08684 whole entry): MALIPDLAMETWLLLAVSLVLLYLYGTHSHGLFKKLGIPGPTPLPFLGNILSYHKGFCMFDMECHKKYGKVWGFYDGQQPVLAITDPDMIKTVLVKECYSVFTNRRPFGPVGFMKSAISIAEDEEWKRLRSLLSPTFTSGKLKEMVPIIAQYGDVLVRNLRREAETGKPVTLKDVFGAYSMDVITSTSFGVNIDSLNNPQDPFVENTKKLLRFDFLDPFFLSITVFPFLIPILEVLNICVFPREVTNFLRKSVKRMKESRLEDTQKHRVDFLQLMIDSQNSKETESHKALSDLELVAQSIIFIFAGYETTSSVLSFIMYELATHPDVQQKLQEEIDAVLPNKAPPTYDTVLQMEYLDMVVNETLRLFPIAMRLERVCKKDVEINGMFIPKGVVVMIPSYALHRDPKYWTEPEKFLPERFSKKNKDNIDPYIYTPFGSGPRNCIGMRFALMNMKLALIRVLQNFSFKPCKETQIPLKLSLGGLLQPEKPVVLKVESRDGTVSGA
CYP2D6, sequence (P10635 whole entry): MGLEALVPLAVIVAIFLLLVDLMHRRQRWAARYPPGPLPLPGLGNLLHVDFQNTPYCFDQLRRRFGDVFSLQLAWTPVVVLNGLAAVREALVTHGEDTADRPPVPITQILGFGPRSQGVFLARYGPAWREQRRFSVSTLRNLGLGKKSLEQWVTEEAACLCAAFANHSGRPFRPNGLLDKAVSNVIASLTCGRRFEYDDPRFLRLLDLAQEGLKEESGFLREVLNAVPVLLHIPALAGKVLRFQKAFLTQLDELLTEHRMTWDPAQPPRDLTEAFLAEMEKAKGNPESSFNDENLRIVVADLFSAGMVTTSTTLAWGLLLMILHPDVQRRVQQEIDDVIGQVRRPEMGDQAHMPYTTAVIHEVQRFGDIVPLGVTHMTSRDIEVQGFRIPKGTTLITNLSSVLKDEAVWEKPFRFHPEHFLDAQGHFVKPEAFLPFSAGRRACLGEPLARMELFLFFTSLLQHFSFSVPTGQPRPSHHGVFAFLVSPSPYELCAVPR

## LRKLRKRLLRLVGRQLEEFL [HM-10/10, LRKLRKRLLRLVGRQLEEFL]
[1]
  half-life at 2 µM: 372 min
[2]; Acidic (pH 1.3)
  half-life at 2 µM: > 120 min
  remaining at 1 h, 2 µM: 156%
[2]; Physiological pH (pH 7.4)
  half-life at 2 µM: 433 min
  remaining at 1 h, 2 µM: 81.4%
[2]; Slightly Acidic (pH 5.5)
  half-life at 2 µM: > 120 min
  remaining at 1 h, 2 µM: 136%
[3]; CD-1 mouse liver microsomes 0.5 mg protein/mL, 2 μM
  CLint scaled: 170 mL/min/kg
[3]; pooled liver microsomes, pH 7.4, CD-1 mouse liver microsomes 0.5 mg protein/mL
  half-life at 2 µM: 32 min
[3]; pooled liver microsomes, pH 7.4, CD-1 mouse liver microsomes 0.5 mg protein/mL, read-out: % Remaining at 120 min
  remaining at 2 h, 2 µM: 0.8%
[4]; pooled liver microsomes, pH 7.4, Sprague-Dawley rat liver microsomes 0.5 mg protein/mL
  half-life at 2 µM: 27.7 min
[4]; pooled liver microsomes, pH 7.4, Sprague-Dawley rat liver microsomes 0.5 mg protein/mL, read-out: % Remaining at 120 min
  remaining at 2 h, 2 µM: 3.7%
[4]; [23]
  CLint scaled: 6.09 L/h/kg
[4]; read-out: CLint (mL/min/kg)
  CLint scaled: 6.06 L/h/kg
[5]; [23]
  CLint scaled: 2.83 L/h/kg
[5]; read-out: CLint (mL/min/kg)
  CLint scaled: 2.83 L/h/kg
[5]; pooled liver microsomes, pH 7.4, Beagle dog liver microsomes 0.5 mg protein/mL
  half-life at 2 µM: 33 min
[5]; pooled liver microsomes, pH 7.4, Beagle dog liver microsomes 0.5 mg protein/mL, read-out: % Remaining at 120 min
  remaining at 2 h, 2 µM: 1.5%
[6]; [23]
  CLint scaled: 5.15 L/h/kg
[6]; read-out: CLint (mL/min/kg)
  CLint scaled: 5.15 L/h/kg
[6]; pooled liver microsomes, pH 7.4, Cynomolgus monkey liver microsomes 0.5 mg protein/mL
  half-life at 2 µM: 21.8 min
[6]; pooled liver microsomes, pH 7.4, Cynomolgus monkey liver microsomes 0.5 mg protein/mL, read-out: % Remaining at 120 min
  remaining at 2 h, 2 µM: 0.8%
[7]; cryopreserved hepatocytes
  half-life at 2 µM: < 15 min
[7]; [24]
  remaining at 0.5 h, 2 µM: 0.7%
[7]; read-out: CLint (L/hr/kg)
  CLint scaled: > 65.5 L/h/kg
[7]; read-out: CLint (mL/min/kg)
  CLint scaled: > 65.4 L/h/kg
[8]; cryopreserved hepatocytes
  half-life at 2 µM: 10.7 min
[8]; [24]
  remaining at 0.5 h, 2 µM: 16%
[8]; [23]
  CLint scaled: 42 L/h/kg
[8]; read-out: CLint (mL/min/kg)
  CLint scaled: 41.9 L/h/kg
[9]; 2 μM
  % Remaining at 30 min: 2.5%
[9]; cryopreserved hepatocytes
  half-life at 2 µM: 5.28 min
[9]; human, cryopreserved hepatocytes, read-out: % Remaining at 30 min
  remaining at 0.5 h, 2 µM: 2.47%
[9]; human, 2 μM, read-out: CLint (L/hr/kg) (converted)
  CLint scaled: 42.5 L/h/kg
[9]; human, 2 μM, read-out: CLint (mL/min/kg)
  CLint scaled: 42.5 L/h/kg
[10]; 37 °C, read-out: % Stability in Matrix (2.5 h)
  remaining at 2.5 h, 2 µM: 88.5%
[10]; 2.5 h at 37 °C, read-out: Fu (Unbound Fraction) Mean ± SD
  fraction unbound at 2.5 h, 2 µM: 0.203 ± 0.055
[11]
  % Protein Bound Mean ± SD: 79.7% and 79.7 ± 5.5%
  % Protein Free Mean ± SD: 20.3 ± 5.5%
[12]; Midazolam (3A4)
  % Inhibition at 50 µM No PI + NADPH: 6.6%
  % Inhibition at 50 µM No PI − NADPH: 19.2%
  % Inhibition at 50 µM PI + NADPH: 13.9%
  % Inhibition at 50 µM PI − NADPH: 29.5%
[12]; Testosterone (3A4)
  % Inhibition at 50 µM No PI + NADPH: 6.9%
  % Inhibition at 50 µM No PI − NADPH: −0.7%
  % Inhibition at 50 µM PI + NADPH: 11.3%
  % Inhibition at 50 µM PI − NADPH: 32.2%
[13]
  inhibition at 50 µM: -26.4 to 42.2%
[14]; all isoenzymes, +/− NADPH, with and without 30-min preincubation
  Inhibition of CYP450 isoenzymes at 50 µM (maximum test concentration): No inhibition to minimal inhibition
[14]; all isozymes, pooled human liver microsomes 0.1 mg/mL
  Inhibition of CYP isozymes at 50 µM with pre-incubation in the presence of 1 mM NADPH: less than 30%
[14]; up to 50 µM, all isoenzymes
  Time-dependent inhibition (TDI) of CYP450 isoenzymes: no TDI
[15]
  % Inhibition at 50 µM No PI + NADPH: 6.0%
  % Inhibition at 50 µM No PI − NADPH: 17.2%
  % Inhibition at 50 µM PI + NADPH: 17.0%
  % Inhibition at 50 µM PI − NADPH: 19.7%
[16]
  half-life at 2 µM: 164 min
  remaining at 2 h, 2 µM: 64.5%
[17]
  half-life at 2 µM: 82.5 min
  remaining at 2 h, 2 µM: 36.3%
[18]
  half-life at 2 µM: 54.6 min
  remaining at 2 h, 2 µM: 24.8%
[19]; pH 7.4
  remaining at 2.5 h, 2 µM: 14.6%
[19]; pH 7.4, Fu (Unbound Fraction) Mean ± SD, CD-1 mouse plasma (K2EDTA), 2 μM, 2.5 h at 37 °C
  fraction unbound at 2.5 h, 2 µM: 0.847 ± 0.246
[20]
  % Protein Bound Mean ± SD: 15.3% and 15.3 ± 24.6%
  % Protein Free Mean ± SD: 84.7 ± 24.6%
[21]
  fraction unbound at 2.5 h, 2 µM: 0.672 ± 0.094
[22]; 37 °C
  % Stability in Matrix (2.5 h): 36.6%
[22]; 2.5 h at 37 °C
  % Protein Bound Mean ± SD: 32.8 ± 9.4%
  % Protein Free Mean ± SD: 67.2 ± 9.4%
